From patent US9850283B2, “Macrocyclic inhibitors of the PD-1/PD-L1 and CD80(B7-1)/PD-L1 protein/protein interactions” (BRISTOL-MYERS SQUIBB COMPANY, priority 2013, dated 2017)
Where two headings read alike, the source gives them in different places. Positions of bridges follow the written chain, without caps; N, C: chain ends. Non-standard residues stand in square brackets, D forms with d. Residues, ends and D or L forms follow the SMILES beside them. ξ: configuration not given here. Phe(4-tBu) = CC(C)(C)c1ccc(C[C@H](N)C(=O)O)cc1; Phe(2-Cl) = N[C@@H](Cc1ccccc1Cl)C(=O)O; Phe(3-Me) = Cc1cccc(C[C@H](N)C(=O)O)c1; Phe(4-Me) = Cc1ccc(C[C@H](N)C(=O)O)cc1; Pro(3S-OH) = O=C(O)[C@H]1NCC[C@@H]1O; Bta = N[C@@H](Cc1csc2ccccc12)C(=O)O; Hyp = O=C(O)[C@@H]1C[C@@H](O)CN1; NMeF = CN[C@@H](Cc1ccccc1)C(=O)O; NMeNle = CCCC[C@H](NC)C(=O)O; NMeM = CN[C@@H](CCSC)C(=O)O; NMeA = CN[C@@H](C)C(=O)O; Dab = NCC[C@H](N)C(=O)O; Dap = NC[C@H](N)C(=O)O; ξC = NC(CS)C(=O)O; Sar = CNCC(=O)O

Experiments:
Human PD-L1/PD-1 = molecular target: T1, Human PD-L1/PD-1 (Homo sapiens, UniProt Q9NZQ7); experiment: HTRF PD-1-Ig/PD-L1-His binding assay (human PD-L1)
T1 construct: made in house; host or cells: HEK293T
How it was run: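 Soluble PD-1-Ig binding to PD-L1-His measured by HTRF in dPBS with 0.1% BSA and 0.05% Tween-20. Detection used europium cryptate anti-Ig antibody (1 nM final) and APC anti-His antibody (20 nM final) added on top of the binding reaction.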

[1] = molecular target: T2, LK35.2-hPD-L1 cells / PE-labeled PD-1-Ig (Homo sapiens, UniProt Q9NZQ7); experiment: LK35.2-hPD-L1 cell binding high-content screening assay; assay type: cell-based
T2 construct: expressed in transfected cells; host or cells: LK35.2 mouse B cell line
How it was run: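 Mouse LK35.2 B cells stably over-expressing human PD-L1, cultured overnight, treated with compound plus PE-labeled human PD-1-Ig (1 nM final) in RPMI/10% FCS for 1 h at 37 °C. After washing, bound fluorescence quantified by high-content imaging.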

[2] = cluster symbol, read-out: HTRF IC50 cluster
[3] = cluster symbol, cell line of CBA not given (LK35.2-hPD-L1 or 293T-hPD-L1), read-out: CBA IC50 cluster
[4] = cell binding assay, cell line not given, cluster symbol, read-out: CBA IC50 cluster

T2 sequence (Q9NZQ7 19-290): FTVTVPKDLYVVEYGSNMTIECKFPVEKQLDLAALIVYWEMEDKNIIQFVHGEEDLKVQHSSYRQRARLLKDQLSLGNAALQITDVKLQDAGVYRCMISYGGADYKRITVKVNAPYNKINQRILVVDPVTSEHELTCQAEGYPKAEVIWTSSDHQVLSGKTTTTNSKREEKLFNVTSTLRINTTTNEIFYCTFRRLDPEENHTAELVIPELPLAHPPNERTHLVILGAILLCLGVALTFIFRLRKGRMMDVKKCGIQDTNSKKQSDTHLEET
T1 sequence (Q9NZQ7 with tags, fused parts or gaps): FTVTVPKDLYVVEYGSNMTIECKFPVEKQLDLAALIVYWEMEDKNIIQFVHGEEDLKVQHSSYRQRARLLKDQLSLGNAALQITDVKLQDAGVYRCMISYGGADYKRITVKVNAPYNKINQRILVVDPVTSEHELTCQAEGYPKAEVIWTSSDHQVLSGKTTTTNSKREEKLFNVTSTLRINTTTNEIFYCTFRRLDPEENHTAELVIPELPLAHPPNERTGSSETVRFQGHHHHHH

SMILES	IC50 (Human PD-L1/PD-1; [2]) [nM]	IC50 [1, 3] [nM]	also measured
CCCC[C@H]1C(=O)N(C)[C@@H](CCCC)C(=O)N[C@@H](CCCNC(=N)N)C(=O)N[C@H](C(=O)NCC(N)=O)CSCC(=O)N[C@@H](Cc2ccc(O)cc2)C(=O)N(C)[C@@H](C)C(=O)N[C@@H](CC(N)=O)C(=O)N2CCC[C@H]2C(=O)N[C@@H](CN)C(=O)N[C@@H](CC(C)C)C(=O)N2C[C@H](O)C[C@H]2C(=O)N[C@@H](Cc2c[nH]c3ccccc23)C(=O)N[C@@H](CO)C(=O)N[C@@H](Cc2c[nH]c3ccccc23)C(=O)N1C [Example 1114] ({CH2CO}-Y[NMeA]NP[Dap]L[Hyp]WSW[NMeNle][NMeNle]RCG-NH2; thioether N-14)	6.76 to 30.3	0.158 to 4.71	–
CCCC[C@H]1C(=O)N(C)[C@@H](CCCC)C(=O)N[C@@H](CCCNC(=N)N)C(=O)N[C@@H](C(=O)NCC(N)=O)CSCC(=O)N[C@@H](Cc2cnc[nH]2)C(=O)N(C)[C@@H](C)C(=O)N[C@@H](CC(N)=O)C(=O)N2CCC[C@H]2C(=O)N[C@@H](Cc2cnc[nH]2)C(=O)N[C@@H](CC(C)C)C(=O)N(C)CC(=O)N[C@@H](Cc2c[nH]c3ccccc23)C(=O)N[C@@H](CO)C(=O)N[C@@H](Cc2c[nH]c3ccccc23)C(=O)N1C [Example 1072] ({CH2CO}-H[NMeA]NPHL[Sar]WSW[NMeNle][NMeNle]R[dC]G-NH2; thioether N-14)	> 30.5	> 74.3	–
CCCC[C@H]1C(=O)N(C)CC(=O)N[C@@H](CC(=O)O)C(=O)N[C@@H](C(C)C)C(=O)N(C)[C@@H](Cc2ccccc2)C(=O)N[C@@H](CCC(=O)O)C(=O)N(C)CC(=O)N[C@@H](Cc2c[nH]c3ccccc23)C(=O)N[C@@H](Cc2ccc(O)cc2)C(=O)N[C@@H](CCCNC(=N)N)C(=O)N[C@H](C(=O)NCC(N)=O)CSCC(=O)N[C@@H](Cc2ccccc2)C(=O)N(C)[C@@H](Cc2ccccc2)C(=O)N1C [Example 3559] (HELM PEPTIDE1{[O=C(C[*:3])[*:2]].F.[meF].[CCCC[C@@H](C(=O)[*:2])N(C)[*:1]].[Sar].D.V.[meF].E.[Sar].W.Y.R.C.G.[am]}$PEPTIDE1,PEPTIDE1,1:R3-14:R3$$$V2.0)	–	–	IC50 (Human PD-L1/PD-1; HTRF IC50 value, value given instead of cluster): 12.1 nM; IC50 ([1]; CBA IC50 value, cell binding assay, cell line not given, value given instead of cluster): 48 nM
CCCC[C@H]1C(=O)N(C)CC(=O)N[C@@H](CC(=O)O)C(=O)N[C@@H](C(C)C)C(=O)N(C)[C@@H](Cc2ccccc2)C(=O)N[C@@H](Cc2ccc(O)cc2)C(=O)N(C)CC(=O)N[C@@H](Cc2c[nH]c3ccccc23)C(=O)N[C@@H](Cc2ccc(O)cc2)C(=O)N[C@H](C(=O)NCC(N)=O)CSCC(=O)N[C@@H](Cc2ccccc2)C(=O)N(C)[C@@H](Cc2ccccc2)C(=O)N1C [Example 3054] (HELM PEPTIDE1{[O=C(C[*:3])[*:2]].F.[meF].[CCCC[C@@H](C(=O)[*:2])N(C)[*:1]].[Sar].D.V.[meF].Y.[Sar].W.Y.C.G.[am]}$PEPTIDE1,PEPTIDE1,1:R3-13:R3$$$V2.0)	> 30.5	> 74.3	–
CCCC[C@H]1C(=O)N(C)[C@@H](CCCC)C(=O)N[C@@H](CN)C(=O)N[C@H](C(=O)NCC(N)=O)CSCC(=O)N[C@@H](Cc2ccc(O)cc2)C(=O)N2CCC[C@H]2C(=O)N[C@@H](CC(=O)O)C(=O)N2CCC[C@H]2C(=O)N[C@@H](CN)C(=O)N[C@@H](CC(=O)O)C(=O)N2C[C@H](O)C[C@H]2C(=O)N[C@@H](Cc2c[nH]c3ccccc23)C(=O)N[C@@H](CCN)C(=O)N[C@@H](Cc2csc3ccccc23)C(=O)N1C [Example 1222] ({CH2CO}-YPDP[Dap]D[Hyp]W[Dab][Bta][NMeNle][NMeNle][Dap]CG-NH2; thioether N-14)	6.76 to 30.3	> 74.3	–
CCCC[C@H]1C(=O)N(C)[C@@H](CCCC)C(=O)N[C@@H](CCCNC(=N)N)C(=O)NC(C(=O)NCC(N)=O)CSCC(=O)N[C@@H](Cc2ccc(O)cc2)C(=O)N(C)[C@@H](C)C(=O)N[C@@H](CC(N)=O)C(=O)N2C[C@H](O)C[C@H]2C(=O)N[C@@H](Cc2cnc[nH]2)C(=O)N[C@@H](CC(C)C)C(=O)N2C[C@H](O)C[C@H]2C(=O)N[C@@H](Cc2c[nH]c3ccccc23)C(=O)N[C@@H](CO)C(=O)N[C@@H](Cc2c[nH]c3ccccc23)C(=O)N1C (some centres unmarked) [Example 9013] ({CH2CO}-Y[NMeA]N[Hyp]HL[Hyp]WSW[NMeNle][NMeNle]R[ξC]G-NH2; thioether N-14)	–	–	IC50 (Human PD-L1/PD-1; numeric value, read-out: HTRF IC50 values): 8.11 nM; IC50 ([1]; cell binding assay, cell line not given, numeric value, read-out: CBA IC50 values): 5.97 nM
CCCC[C@H]1C(=O)N(C)CC(=O)N[C@@H](CC(=O)O)C(=O)N[C@@H](C(C)C)C(=O)N(C)[C@@H](Cc2ccccc2)C(=O)N[C@@H](Cc2ccc(O)cc2)C(=O)N(C)CC(=O)N[C@@H](Cc2c[nH]c3ccccc23)C(=O)N[C@@H](Cc2ccc(O)cc2)C(=O)N[C@@H](CC(C)C)C(=O)N[C@H](C(=O)NCC(N)=O)CSCC(=O)N[C@@H](Cc2ccccc2Cl)C(=O)N(C)[C@@H](Cc2ccccc2)C(=O)N1C [Example 3104] ({CH2CO}-[Phe(2-Cl)][NMeF][NMeNle][Sar]DV[NMeF]Y[Sar]WYLCG-NH2; thioether N-13)	> 30.5	> 74.3	–
CCCC[C@H]1C(=O)N(C)[C@@H](CCCC)C(=O)N[C@@H](CCCNC(=N)N)C(=O)N[C@H](C(=O)NCC(N)=O)CSCC(=O)N[C@@H](Cc2ccc(O)cc2)C(=O)N(C)[C@@H](C)C(=O)N[C@@H](CCN)C(=O)N2CCC[C@H]2C(=O)N[C@@H](CN)C(=O)N[C@@H](CCC(=O)O)C(=O)N2C[C@H](O)C[C@H]2C(=O)N[C@@H](Cc2c[nH]c3ccccc23)C(=O)N[C@@H](CO)C(=O)N[C@@H](Cc2c[nH]c3ccccc23)C(=O)N1C [Example 5131] ({CH2CO}-Y[NMeA][Dab]P[Dap]E[Hyp]WSW[NMeNle][NMeNle]RCG-NH2; thioether N-14)	0.385 to 6.74	–	IC50 [1, 4]: 0.158 to 4.71 nM
CCCC[C@H]1C(=O)N(C)CC(=O)N[C@@H](CC(=O)O)C(=O)N[C@@H](C(C)C)C(=O)N(C)[C@@H](Cc2ccccc2)C(=O)N[C@@H](Cc2ccc(O)cc2)C(=O)N(C)CC(=O)N[C@@H](Cc2c[nH]c3ccccc23)C(=O)N[C@@H](Cc2ccc(O)cc2)C(=O)N[C@@H](CC(C)C)C(=O)N[C@H](C(=O)NCC(N)=O)CSCC(=O)N[C@@H](Cc2ccc(C)cc2)C(=O)N(C)[C@@H](Cc2ccccc2)C(=O)N1C [Example 3094] ({CH2CO}-[Phe(4-Me)][NMeF][NMeNle][Sar]DV[NMeF]Y[Sar]WYLCG-NH2; thioether N-13)	6.76 to 30.3	4.78 to 72.9	–
CCCC[C@H]1C(=O)N(C)[C@@H](CCCC)C(=O)N[C@@H](CCCNC(=N)N)C(=O)N[C@H](C(=O)NCC(N)=O)CSCC(=O)N[C@@H](Cc2ccc(C(C)(C)C)cc2)C(=O)N(C)[C@@H](C)C(=O)N[C@@H](CC(N)=O)C(=O)N2CCC[C@H]2C(=O)N[C@@H](CN)C(=O)N[C@@H](CC(C)C)C(=O)N2C[C@H](O)C[C@H]2C(=O)N[C@@H](Cc2c[nH]c3ccccc23)C(=O)N[C@@H](CO)C(=O)N[C@@H](Cc2c[nH]c3ccccc23)C(=O)N1C [Example 7036] ({CH2CO}-[Phe(4-tBu)][NMeA]NP[Dap]L[Hyp]WSW[NMeNle][NMeNle]RCG-NH2; thioether N-14)	6.76 to 30.3	–	IC50 [1, 4]: > 74.3 nM
CCCC[C@H]1C(=O)N(C)[C@@H](CCSC)C(=O)N[C@@H](CCCNC(=N)N)C(=O)NC(C(=O)NCC(N)=O)CSCC(=O)N[C@@H](Cc2ccc(O)cc2)C(=O)N(C)[C@@H](C)C(=O)N[C@@H](CC(N)=O)C(=O)N2CCC[C@H]2C(=O)N[C@@H](Cc2cnc[nH]2)C(=O)N[C@@H](CC(C)C)C(=O)N2CCC[C@H]2C(=O)N[C@@H](Cc2c[nH]c3ccccc23)C(=O)N[C@@H](CO)C(=O)N[C@@H](Cc2csc3ccccc23)C(=O)N1C (some centres unmarked) [Example 9022] ({CH2CO}-Y[NMeA]NPHLPWS[Bta][NMeNle][NMeM]R[ξC]G-NH2; thioether N-14)	0.385 to 6.74	–	IC50 [1, 4]: 0.158 to 4.71 nM
CCCC[C@H]1C(=O)N(C)[C@@H](CCCC)C(=O)N[C@@H](CCCNC(=N)N)C(=O)N[C@H](C(=O)NCC(N)=O)CSCC(=O)N[C@@H](Cc2ccc(O)cc2)C(=O)N2CC[C@H](O)[C@H]2C(=O)N[C@@H](CC(N)=O)C(=O)N2CCC[C@H]2C(=O)N[C@@H](Cc2cnc[nH]2)C(=O)N[C@@H](CC(C)C)C(=O)N2CCC[C@H]2C(=O)N[C@@H](Cc2c[nH]c3ccccc23)C(=O)N[C@@H](CO)C(=O)N[C@@H](Cc2csc3ccccc23)C(=O)N1C [Example 1227] ({CH2CO}-Y[Pro(3S-OH)]NPHLPWS[Bta][NMeNle][NMeNle]RCG-NH2; thioether N-14)	> 30.5	> 74.3	–
CCCC[C@H]1C(=O)N(C)[C@@H](CCCC)C(=O)N[C@@H](CCCNC(=N)N)C(=O)N[C@H](C(=O)NCC(N)=O)CSCC(=O)N[C@@H](Cc2cccc(C)c2)C(=O)N(C)[C@@H](C)C(=O)N[C@@H](CC(N)=O)C(=O)N2CCC[C@H]2C(=O)N[C@@H](Cc2cnc[nH]2)C(=O)N[C@@H](CC(C)C)C(=O)N(C)CC(=O)N[C@@H](Cc2c[nH]c3ccccc23)C(=O)N[C@@H](CO)C(=O)N[C@@H](Cc2c[nH]c3ccccc23)C(=O)N1C [Example 1097] ({CH2CO}-[Phe(3-Me)][NMeA]NPHL[Sar]WSW[NMeNle][NMeNle]RCG-NH2; thioether N-14)	6.76 to 30.3	4.78 to 72.9	–
